Measurements as given in patent publication US11358965B2, “EGFR dimer disruptors and use of the same” (THE REGENTS OF THE UNIVERSITY OF MICHIGAN, priority 2018, dated 2022).
pIC50: −log10 of the molar value.

Key:
[1] = tested on: cells; test: Cell Titer Blue % cell viable (24 hrs); assay type: cell-based; conditions: 24 h, Conc 3.75 μM
Description: The viability of cells upon treatment was assessed by CellTiter-Blue® reagent following the manufacturer's protocol in RKO, UM10B, UM1, MCR5, and UMCC92 cells. Briefly, 10,000 cells were plated in 96-well plate in quadruplets. One day after seeding, cells were treated with a range of concentrations (0.1 to 30 micromolar). […] Only the viable cells convert the redox dye (reszurin) into a fluorescent product (resofurin). The emission of fluorescence (excitation 560 nm) was measured at […]. The IC50 value was calculated as the mean concentration of compounds required to inhibit cell proliferation as measured by the fluorescence at […] by 50 percent compared to the vehicle-treated controls.

[2] = tested on: RKO cells; test: Clonogenic IC50, RKO; assay type: cell-based; conditions: Homo sapiens
[3] = tested on: UM1 cells; test: Clonogenic IC50, UM1; assay type: cell-based
[4] = tested on: UMCC92 cells; test: Clonogenic IC50, UMCC92; assay type: cell-based
[5] = tested on: SK-MEL-5; test: NCI 60 cell line screen, SK-MEL-5; assay type: cell-based, human; conditions: Melanoma
Description: (§1) The activity of Compound 8C was tested against 60 different human tumor cell lines at the National Cancer Institute, using the standard NCI 60 screening protocol.

[6] = tested on: LOX IMVI; test: NCI 60 cell line screen, LOX IMVI; assay type: cell-based, human; conditions: Melanoma
Description: as §1

[7] = tested on: MALME-3M; test: NCI 60 cell line screen, MALME-3M; assay type: cell-based, human; conditions: Melanoma
Description: as §1

[8] = tested on: SK-MEL-28; test: NCI 60 cell line screen, SK-MEL-28; assay type: cell-based, human; conditions: Melanoma
Description: as §1

[9] = tested on: HT29; test: NCI 60 cell line screen, HT29; assay type: cell-based, human; conditions: Colon Cancer
Description: as §1

[10] = tested on: K-562; test: NCI 60 cell line screen, K-562; assay type: cell-based, human; conditions: Leukemia
Description: as §1

[11] = tested on: HCC-2998; test: NCI 60 cell line screen, HCC-2998; assay type: cell-based, human; conditions: Colon Cancer
Description: as §1

[12] = tested on: MDA-MB-468; test: NCI 60 cell line screen, MDA-MB-468; assay type: cell-based, human; conditions: Breast Cancer
Description: as §1

[13] = tested on: MCF7; test: NCI 60 cell line screen, MCF7; assay type: cell-based, human; conditions: Breast Cancer
Description: as §1

[14] = tested on: HL-60(TB); test: NCI 60 cell line screen, HL-60(TB); assay type: cell-based, human; conditions: Leukemia
Description: as §1

[15] = tested on: MDA-MB-231/ATCC; test: NCI 60 cell line screen, MDA-MB-231/ATCC; assay type: cell-based, human; conditions: Breast Cancer
Description: as §1

[16] = Microsomal half-life; assay type: in vitro ADME; conditions: microsomes
[17] = Stability in mouse liver microsomes; assay type: in vitro ADME
[18] = Stability in human liver microsomes; assay type: in vitro ADME
[19] = tested on: cells; test: Clonogenic cellular assay; assay type: cell-based
[20] = tested on: PC9-AZR; test: Clonogenic survival assay, PC9-AZR; assay type: cell-based; conditions: read-out: IC50 and IC90
[21] = tested on: HCC827-AZR; test: Clonogenic survival assay, HCC827-AZR; assay type: cell-based; conditions: read-out: IC50 and IC90
[22] = molecular target: T1, purified EGFR (Homo sapiens, UniProt P00533); test: Competition with Biotin-Disruptin for purified EGFR; assay type: binding; conditions: 15 minutes at 37° C.
T1 construct: WT-EGFR kinase domain (aa696-1022, active kinase); made in house; host or cells: SF9 insect cells
T1 sequence (P00533 696-1022): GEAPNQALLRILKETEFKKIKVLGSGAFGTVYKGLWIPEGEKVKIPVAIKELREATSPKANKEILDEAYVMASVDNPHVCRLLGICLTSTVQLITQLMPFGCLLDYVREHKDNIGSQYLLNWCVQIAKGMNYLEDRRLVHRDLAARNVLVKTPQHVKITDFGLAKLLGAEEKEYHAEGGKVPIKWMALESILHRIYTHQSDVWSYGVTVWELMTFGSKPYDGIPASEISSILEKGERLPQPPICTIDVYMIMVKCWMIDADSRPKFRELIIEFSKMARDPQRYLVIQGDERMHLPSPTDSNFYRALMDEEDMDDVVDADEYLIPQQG
Description: To determine if Compound 8C competes for the same binding site on EGFR, Biotin-Disruptin-Avidin coupled beads were incubated with purified EGFR in the presence or absence of Compound 8C for 15 minutes at 37° C. The agarose beads were spun down, and the non-specific protein removed by washing in citrate buffer. The bound protein was released in Laemmli buffer and resolved by SDS page.

[23] = molecular target: T2, purified wild-type EGFR kinase domain (Homo sapiens, UniProt P00533); test: Thermal stability assay of purified EGFR; assay type: binding; conditions: 10 μM
T2 construct: WT-EGFR kinase domain (aa696-1022, active kinase); made in house; host or cells: SF9 insect cells
T2 sequence (P00533 696-1022): as above
Description: The samples were subjected to heat inactivation (20 to 44° C.) for 3 minutes. The soluble fraction was separated from aggregate by centrifugation at 13,000 RPM at 4° C. for 10 minutes. […] The EGFR band intensity as quantified by ImageJ software and plotted (see FIG. 5B). […] The soluble fraction of EGFR was quantified and plotted as described above (see FIG. 5C).
After cooling, the samples were centrifuged, and the soluble protein fraction was collected and resolved using immunoblotting with anti-EGFR antibodies (see FIG. 6A).

[24] = Pharmacokinetics in tumor and plasma, NCI-H1975 xenograft mice; assay type: in vivo, nude mice; conditions: for half-life: nude, mouse, ip
Description: The IC50 and IC90 for PC9-AZR, and HCC827-AZR, range from ˜1.5 to ˜4 μM (see FIG. 7A). It is interesting to note that the peak plasma concentration was 5.4±1.5 μM for 30 minutes. […] Prolonged drug accumulation in tumors despite rapid systemic clearance is ideal for therapeutic use. The data at the 24 hour time point indicate that the agent may be suitable for daily administration. After observing selective accumulation of Compound 8C in tumors injected i.p., it was determined if Compound 8C is orally available. For oral administration, Compound 8C was formulated in 20% tween 80 in PBS (v/v) after brief sonication. Mice received 100 mg/kg by oral gavage. The concentrations of Compound 8C in tumor and plasma samples at 7 hours, 15 hours and 24 hours were determined and are plotted in FIG. 8B.
For intraperitoneal injection Compound 8C was formulated at 10 mg/mL in PBS with 5% DMSO by adjusting the pH to 5.5. For oral administration, a homogenous suspension was prepared in 20% tween 80 upon brief sonication. Initially, a single 100 mg/kg dose of Compound 8C was given i.p. (FIG. 8A) or gavaged into nude mice bearing human NCI-H1975 tumor xenografts (>150 mm3) (FIG. 8B). Mice were euthanized at time 0, 30 minutes, 1 hour, 3 hours, 7 hours, 15 hours, and at 24 hours. Tumor and plasma samples were collected. In case of mice orally gavaged, plasma and tumor samples were collected only at 7 hours, 15 hours and at 24 hours. The concentration of Compound 8C in plasma and tumor was determined and the resulting data are plotted in terms of molar concentration.

[25] = Preliminary safety test; assay type: in vivo, C57BL6 mice; conditions: daily dose of 30 mg/kg for one week
Description: A preliminary test on the safety of a daily dose of 30 mg/kg for one week was performed using C57BL6 mice. The overall health and weight of a group of 6 mice was monitored during treatment. A modest loss of 3.5±2.4% body weight after one week of treatment was observed, but mice fully recovered the weight 2-days after treatment cessation.

[26] = tested on: isogenic 6-Ba/F3 cell types (TKI sensitive and resistant); test: Activity in isogenic Ba/F3 cell types

## CN1CCC2(CC1)N=C(SCC(=O)Nc1cnc3ccccc3c1)C(c1ccc(Br)cc1)=N2 [Compound 8C, 2-((3-(4-bromophenyl)-8-methyl-1,4,8-triazaspiro[4.5]deca-1,3-dien-2-yl)thio)-N-(quinolin-3-yl)acetamide]
[1]
  viability at 3.75 µM: 68%
[2]
  IC50: 1.6 µM
[3]
  IC50: 0.5 µM
[4]
  IC50: 0.2 µM
[5]
  Percent Growth: −96.2%
[6]
  Percent Growth: −78.5%
[7]
  Percent Growth: −75.5%
[8]
  Percent Growth: −70.1%
[9]
  Percent Growth: −67.1%
[10]
  Percent Growth: −61.5%
[11]
  Percent Growth: −51.3%
[12]
  Percent Growth: −43.8%
[13]
  Percent Growth: −42.7%
[14]
  Percent Growth: −40.7%
[15]
  Percent Growth: −40.5%
[16]
  half-life: > 0.767 h
[17]
  stability compared to pre lead (C95): approximately 20 times
[18]
  stability compared to pre lead (C95): approximately 20 times
[19]
  IC50 in the clonogenic cellular assay: sub-micromolar
[20]
  pIC50: 5.40 to 5.82
[21]
  pIC50: 5.40 to 5.82
[22]
  inhibition of Disruptin-EGFR binding: Competitive inhibition
[23]
  effect on melting curve / melting temperature of purified WT-EGFR: shifts the melting curve
[24]; 100 mg/kg i.p., single dose, for 30 minutes
  peak plasma concentration: 5.4 ± 1.5 µM
[24]; 100 mg/kg i.p., single dose, for ≥7 hours
  peak concentration achieved in the tumor: 69.7 ± 15.68 µM
[24]; i.p. injection
  tumor accumulation: selectively accumulates in the tumor
[24]; plasma, 100 mg/kg i.p., single dose, read-out: plasma half-life (converted)
  half-life: 7.96 h
[24]; tumor, 100 mg/kg i.p., single dose, read-out: half-life in the tumor
  half-life: > 24 h
[25]
  loss of body weight after one week of treatment: 3.5±2.4%
  time to full weight recovery after treatment cessation: 2 days
[26]
  activity in each Ba/F3 cell line: active in the nanomolar range
